Source: US20260315521A1, “THERAPEUTIC FORMULATIONS FOR KIDNEY DISEASE COMPRISING REPAGERMANIUM OR PROPAGERMANIUM AND/OR AT1R BLOCKERS” (DIMERIX BIOSCIENCE PTY LTD, priority 2023, published 2026)
Read-outs that look alike come from different tables or passages of the source.

Assays:
[1] = target: T1, co-stimulated CCR2-AT1R complexes (Homo sapiens, UniProt P30556); test: Gαi protein dissociation assay (ligand-induced BRET) in HEK293FT cells co-stimulated with AngII and MCP-1/CCL2; format: cell-based
T1 construct: HA (haemagglutinin); expressed in transfected cells; host or cells: HEK293FT
From the text: To establish if ARBs maintain their potency for inhibition of Gαi protein activation the potencies of ARBs at AT1R only were correlated with the potency of ARBs at co-stimulated CCR2-AT1R complexes obtained from a Gαi protein dissociation assay (FIG. 2).
HEK293FT cells were transiently transfected by the plasmids coding for Gαi1-Nluc and CCR2-YFP haemagglutinin (HA)-tagged AT1R.
GraphPad Prism (v9.3.1) was then used plot ligand-induced BRET verses ARB concentration and potency (pIC50-values) were obtained by fitting a sigmoidal concentration response curve using non-linear regression function of GraphPad Prism (v9.3.1).
To calculate the potency of sparsentan HEK293FT cells were transiently transfected by the plasmids coding for Gαi1-Rluc8, CCR2-YFP and haemagglutinin (HA)-tagged AT1R. 48 h post-transfection, cells were incubated with substrate for 2 hours before cells were pre-incubated with sparsentan (1 μM) and filtered light emissions were sequentially measured for 1 s in each of the ‘donor wavelength window’ (410-490 nm) and ‘acceptor wavelength window’ (520-620 nm) for 30 minutes.
The potency of ARBs at co-stimulated CCR2-AT1R complexes was then compared to the potency of ARBs at AT1R using the linear regression function of GraphPad Prism (v9.3.1).

AT1R [2] = target: T2, AT1R (Homo sapiens, UniProt P30556); conditions: pIC50 or pKb from IUPHAR and/or Michel et al (2013), fimasartan from Choung et al 2018; cited from earlier work
T2 sequence (P30556 1-359): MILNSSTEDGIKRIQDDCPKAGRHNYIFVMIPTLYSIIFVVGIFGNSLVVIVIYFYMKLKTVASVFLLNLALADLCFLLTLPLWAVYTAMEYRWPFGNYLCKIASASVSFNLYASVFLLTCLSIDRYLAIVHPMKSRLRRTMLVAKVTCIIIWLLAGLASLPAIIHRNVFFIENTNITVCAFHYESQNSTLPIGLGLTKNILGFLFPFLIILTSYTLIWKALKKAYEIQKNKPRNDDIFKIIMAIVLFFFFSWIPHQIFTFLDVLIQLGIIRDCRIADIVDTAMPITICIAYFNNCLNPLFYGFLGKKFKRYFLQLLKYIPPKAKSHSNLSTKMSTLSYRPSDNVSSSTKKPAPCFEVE

AT1R [3] = target: T2, AT1R; test: ARB potency or affinity at AT1R only (public sources: IUPHAR guide to pharmacology, Michel et al 2013, Choung et al 2018); format: binding; conditions: reference value
[4] = test system: angiotensin II-induced cellular responses; conditions: compared with losartan; cited from earlier work
[5] = test system: chemotactic migration of monocytes by MCP-1; conditions: cited from earlier work
[6] = Effect of different doses of repagermanium on efficacy of treatment (FIG. 1); format: in vivo
[7] = test system: protein to creatinine ratio; test: Reduction in protein to creatinine ratio as a biomarker of kidney function; format: in vivo, human; conditions: 120 mg BID
[8] = Population pharmacokinetic analysis of repagermanium (studies DMX-200-101, -202, -203; LC-MS/MS plasma levels); format: in vivo, human; conditions: for AUC(0-t) at 24 h: 240 mg/day, read-out: AUC24h, steady state, median; for AUC(0-t) at 24 h / AUC24h, steady state, range: 240 mg total daily dose; for CL/F: po, read-out: Clearance, median (converted)
Procedure: In all studies blood samples were analyzed using liquid chromatography tandem mass spectrometry (LC-MS/MS). This method involves the addition of deuterated-PPG (d2-PPG) as an internal standard (IS) and liquid-liquid extraction with chloroform for sample processing. The sample is analyzed on an LC-MS/MS system consisting of a Shimadzu LC20AD with Thermo Fisher Hypercarb column using gradient elution and an API 4000 mass spectrometer. The mass spectrometer is operated in the negative electrospray ionization (ESI) ion mode, and used to monitor the precursor to product ion transitions for PPG and d2-PPG, respectively. The lower limit of quantification (LLOQ) was 5 ng/ml.
The pharmacometric analysis was carried out in several steps driven by the suitability of the clinical data for development of the PK model. 1. An initial structural population PK model was developed using data from healthy volunteers (study 101). 2. This model was subsequently updated using the sparse data in patients from studies 202 and 203, and effects of covariates were explored. 3. Model qualification was performed. 4. Finally, the developed model was used for simulations of the influence of covariates on key PK parameters as well as on potential exposures.
The SAS software (version 9.4) was used for preparing the analysis dataset. The population PK analysis was performed using NONMEM (version 7.5.0) and the first order conditional estimation (FOCE) method with interaction. PsN (version≥5.0.0) was used to execute NONMEM runs as well as for running visual predictive checks (VPCs), sampling importance resampling (SIR) and automated step-wise covariate modelling (SCM). The R software (version≥4.0.2) was used for exploratory analysis, creation of goodness of fit (GOF) plots, and summary statistics. Campsis (version 1.1.0), an R-based software application provided by Calvagone, was used for simulations.
The NONMEM version 7.5.0 was used with the GNU Fortran (GCC) compiler version 9.3.0, running on a Ubuntu 20.04 LTS system with Linux kernel version 5.4.0-72-generic on Intel Xeon E5-2640 v3 @ 8 HT 2.60 GHz, using VMWare ESXi 7.0u1 platform with fault tolerance, hosting virtual management server with 8 vCPU; and calculation nodes with Intel Xeon E5-2680 v4 14HT 2.40 GHz. Fortran compiler optimisation options were:-static-w-O3-ffast-math. All software was used in a validated environment.
In the mixed effects modelling the population parameters are categorised as follows: Fixed effects parameters, θ (theta), are used for the structural population parameters (e.g. Ka, CL, V, F, etc.), as well as certain parameters relating the population parameters to the physiological or demographic variables (covariates) included in the analysis. Random effects parameters, n (eta), are used for describing inter-individual variability (IIV) in the fixed effects parameters, and can also be used to describe inter-occasion variability (IOV) if appropriately included in the model. Eta parameters are assumed to be normally distributed random variables with mean zero and variance-covariance matrix Q (omega). The square root of the diagonal elements of this matrix provides the IIV estimates. Off-diagonal elements (if not fixed to zero) are commonly translated to correlations. Random effects parameters, ¿ (epsilon), are used to describe the residual variability. Residual variability includes intra-individual error, analytical error, potential error due to model missspecification and any other error not considered by structural elements such as θ and η. Residual variability parameters are assumed to be normally distributed random variables with mean zero and standard deviation σ (sigma).
Different structural models combined with different residual error models and, if needed, with different estimation methods were applied to identify the most appropriate mixed-effects model. […]

[9] = study 101, healthy volunteers, oral
[10] = study 202, FSGS patients receiving irbesartan
[11] = study 203, DKD patients receiving irbesartan

T1 sequence (P41597 whole entry partner, one chain of several): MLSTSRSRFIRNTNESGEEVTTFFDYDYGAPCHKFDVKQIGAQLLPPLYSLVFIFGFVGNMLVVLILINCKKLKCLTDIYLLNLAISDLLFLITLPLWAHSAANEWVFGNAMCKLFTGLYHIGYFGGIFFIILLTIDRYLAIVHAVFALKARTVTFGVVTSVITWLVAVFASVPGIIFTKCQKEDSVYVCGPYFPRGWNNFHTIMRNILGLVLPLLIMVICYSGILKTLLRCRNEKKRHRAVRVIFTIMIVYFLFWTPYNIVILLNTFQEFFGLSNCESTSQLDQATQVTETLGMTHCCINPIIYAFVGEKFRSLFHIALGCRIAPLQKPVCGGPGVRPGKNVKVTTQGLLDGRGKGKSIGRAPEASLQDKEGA

In the case of `CCOc1nc2cccc(C(=O)O)c2n1Cc1ccc(-c2ccccc2-c2nc(=O)o[nH]2)cc1` [Azilsartan], the “Potency (pIC50), AT1R-CCR2” value ([1]; HEK293FT, 100 nM AngII + 100 nM MCP-1, 30 min ARB pre-incubation) is given as 9.97, the “Potency (pIC50/pKb), AT1R only” value (AT1R [2]) is given as 9.9 and the “Fold decrease in potency, AT1R only” value (AT1R [3]) is given as 1.00 fold.

In the case of `CCOc1nc2cccc(C(=O)O)c2n1Cc1ccc(-c2ccccc2-c2nnn[nH]2)cc1` [Candesartan], the “Potency (pIC50/pKb), AT1R only” value (AT1R [2]) is listed as 10 and the “Fold decrease in potency, AT1R only” value (AT1R [3]) is listed as 1.00 fold.

In the case of `CCCCc1nc(Cl)c(C(=O)O)n1Cc1ccc(-c2ccccc2-c2nn[nH]n2)cc1` [EXP3174], the “potency in blocking angiotensin II-induced cellular responses” value [4] is given as “significantly more potent than losartan”.

In the case of `CCCCc1ncc(/C=C(\Cc2cccs2)C(=O)O)n1Cc1ccc(C(=O)O)cc1` [Eprosartan], the “Potency (pIC50/pKb), AT1R only” value (AT1R [2]) is given as 8.8 and the “Fold decrease in potency, AT1R only” value (AT1R [3]) is given as 1.00 fold.

In the case of `CCCCc1nc(C)c(CC(=S)N(C)C)c(=O)n1Cc1ccc(-c2ccccc2-c2nnn[nH]2)cc1` [Fimasartan], the “Potency (pIC50/pKb), AT1R only” value (AT1R [2]) is given as 8.82^$ and the “Fold decrease in potency, AT1R only” value (AT1R [3]) is given as 1.00 fold.

In the case of `CCCCC1=NC2(CCCC2)C(=O)N1Cc1ccc(-c2ccccc2S(=O)(=O)Nc2noc(C)c2C)c(COCC)c1` [Sparsentan, 2-[4-[(2-butyl-4-oxo-1,3-diazaspiro[4.4]non-1-en-3-yl)methyl]-2-(ethoxymethyl)phenyl]-N-(4,5-dimethyl-1,2-oxazol-3-yl)benzenesulfonamide], the Kb ([1]; read-out: Affinity (pKb), AT1R-CCR2 (converted)) is listed as 1.74 nM, the “Potency (pIC50/pKb), AT1R only” value (AT1R [2]) is listed as 9.1 and the “Fold decrease in potency, AT1R only” value (AT1R [3]) is listed as 1.00 fold.

For `O=C(O)C[CH2][Ge](=[O])[O][Ge](=[O])[CH2]CC(=O)O` [propagermanium, 3-[(2-carboxyethyl-oxogermyl)oxy-oxogermyl] propanoic acid], the “inhibition of in vitro chemotactic migration of monocytes by MCP-1” value [5] is given as “specifically inhibit in vitro chemotactic migration of monocytes by MCP-1”.

For `O=C(O)C[CH2][Ge](=[O])[O][Ge](=[O])[CH2]CC(=O)O` [repagermanium, 3-[(2-carboxyethyl-oxogermyl)oxy-oxogermyl]propanoic acid], the therapeutic effect ([6]; 140 mg twice per day) was “reduced therapeutic effect”, the “efficacy vs repagermanium dose” value ([6]; different doses, FIG. 1) was “‘bell-shaped’ inhibitory curve” and the “protein to creatinine ratio” value [7] was “reduction in protein to creatinine ratio”. The “blood concentration before the next dose” value ([8]; 80 mg twice per day) was “falling too low before the next dose to provide a therapeutic effect”, the “steady state AUC, range” value ([8]; 120 mg BID) was 5 to 25 µg·h/mL and the AUC(0-t) at 24 h ([8]; human, plasma, study 101, healthy volunteers) was 9800 ng·h/mL. It also gave an AUC(0-t) at 24 h ([8]; human, plasma, study 202, FSGS patients) of 16700 ng·h/mL, an AUC(0-t) at 24 h ([8]; human, plasma, study 203, DKD patients) of 11800 ng·h/mL and a CL/F ([8]; human, plasma, study 101, healthy volunteers, oral) of 670 mL/min. For the same molecule, the CL/F ([8]; human, plasma, study 202, FSGS patients receiving irbesartan, 120 mg bid oral) was 300 mL/min, the CL/F ([8]; human, plasma, study 203, DKD patients receiving irbesartan, 120 mg bid oral) was 345 mL/min and the AUC ([8]; human, plasma, 120 mg BID, read-out: steady state AUC) was roughly 15000 ng·h/mL. For the same molecule, the “Clearance, range” value [8, 9] was 24.6 to 60.1 L/h, the “F (rel. bioavailability), median” value [8, 9] was 1.6 and the “F (rel. bioavailability), range” value [8, 9] was 0.7-3.7. For the same molecule, the “AUC24h, steady state, range” value ([8]; study 101, healthy volunteers) was 5.5 to 24.9 µg·h/mL, the “F (rel. bioavailability), median” value [8, 10] was 1.1 and the “F (rel. bioavailability), range” value [8, 10] was 0.9-1.7. For the same molecule, the “Clearance, range” value ([8]; study 202, FSGS patients receiving irbesartan, 120 mg bid oral) was 4.6 to 36.5 L/h, the “AUC24h, steady state, range” value ([8]; study 202, FSGS patients) was 7.8 to 45.2 µg·h/mL and the “F (rel. bioavailability), median” value [8, 11] was 1.0. The “F (rel. bioavailability), range” value [8, 11] was 0.4-1.9, the “Clearance, range” value ([8]; study 203, DKD patients receiving irbesartan, 120 mg bid oral) was 5.8 to 47.6 L/h and the “AUC24h, steady state, range” value ([8]; study 203, DKD patients) was 3.9 to 47.7 µg·h/mL.
